The test system of assay [1] is off-target screening panel. As to the kind of experiment: Off-target inhibition screening (whole panel). To be noted: 10 μM test concentration, hit = inhibition at or above the 50% level. The text has this: In addition to the animal studies presented above in Examples 1-9, the results of in vitro testing of several of the compounds (i.e., XT-203, XT-204, and XT-206 through XT-217) are shown in Table 5 and Table 6. […]. Nine additional compounds had two or fewer off-target hits in the screening. […] These compounds spanned all of the tested N-modification classes. […]. Thus, the medicinal chemistry approach taken in this series of fluorinated compounds can yield low off-target activity and longer metabolic lifetime while preserving TLR4 antagonism. It is appreciated that further development of compounds in this class, using techniques known to those skilled in the art, may yield additional compounds with desirable pharmacologic and toxicologic characteristics.

For assay [2], the system named is CCI neuropathic pain (mechanical allodynia). Description: Rat chronic constriction injury (CCI) neuropathic pain model, SC dosing, von Frey testing (Example 1). It is filed as in vivo. As to the method: Pathogen-free adult male Sprague-Dawley rats (300-375 g; Harlan Labs, Madison, Wis.) were used in all experiments. Rats were housed in temperature (23+/−3° C.) and light (12 hour:12 hour, light:dark cycle; lights on at 0700) controlled rooms with standard rodent chow and water available ad libitum.
Chronic Constriction Injury (CCI) model: Neuropathic pain was induced using the CCI model of partial sciatic nerve injury (see, e.g., Bennett and Xie, […]). CCI was performed at the mid-thigh level of the left hindleg as previously described in Milligan, et al., Eur. J. Neuroscience, 20:2294-2302 (2004). In brief, four sterile chromic gut sutures (cuticular 4-0 chromic gut, FS-2; Ethicon, Somerville, N.J., USA) were loosely tied around the gently isolated sciatic nerve. Drug testing was delayed until 10-14 days after surgery to ensure that neuropathic pain was well established prior to the initiation of drug delivery.
XT-203 CCI SC: Rats (10/group) were subjected to CCI neuropathic pain model surgery. After the pain state was established, they were dosed 3× per day for 5 days with XT-203 or a positive control (gabapentin) dose. Behavior testing for pain responses by von Frey testing was used to establish pain thresholds in the affected hind paw. Because dosage was 3×/day, behavior testing was performed after the first and second dose of day 1 dosing (1.1, 1.2) and after the first and second dose of day 5 dosing (5.1, 5.2). […]
Von Frey Test for Mechanical Allodynia: Rats received at least three 60 min habituations to the test environment prior to behavioral testing. Response thresholds to calibrated light pressure stimuli applied to the plantar surface of the paws was measured using the von Frey test. […] Briefly, rats were first assessed for baseline response thresholds (average of three consecutive withdrawal assessments) from each paw at 15 min intervals, and the average response threshold from both feet was calculated. […] Allodynia was assessed pre- and post-drug delivery.

For assay [3], the system named is hind paw incision pain. As to the kind of experiment: Rat hind paw incision pain model, SC dosing, von Frey testing (Example 2). As to conditions: for effect on pain threshold (von Frey), day 1 and day 5 dosing: SC 3x per day for 5 days, XT-203 28 or 30 mg/kg, (+)-NTX data not shown. The assay is classed as in vivo. As to the method:
Rats were housed in temperature (23+/−3° C.) and light (12 hour:12 hour, light:dark cycle; lights on at 0700) controlled rooms with standard rodent chow and water available ad libitum.
Von Frey Test for Mechanical Allodynia: Rats received at least three 60 min habituations to the test environment prior to behavioral testing. Response thresholds to calibrated light pressure stimuli applied to the plantar surface of the paws was measured using the von Frey test. […] All testing was conducted blind with respect to group assignment. The behavioral responses were used to calculate the threshold, by fitting a Gaussian integral psychometric function using a maximum-likelihood fitting method, as described in detail previously (Id.). Allodynia was assessed pre- and post-drug delivery.
Behavior testing for pain responses by von Frey testing was used to establish pain thresholds in the affected hind paw. Because dosage was 3×/day, behavior testing was performed after the first and second dose of day 1 dosing (1.1, 1.2) and after the first and second dose of day 5 dosing (5.1, 5.2). Testing sessions were performed 30 minutes after the dose was administered.

Take `O=C1CC[C@]2(O)[C@@H]3Cc4ccc(O)c5c4[C@]2(CCN3CC2CC2)[C@@H]1O5` [(+)-naltrexone, reference compound]: the “off-target hits in the screening” value in assay [1] is “none”; in assay [1] (listed as XT-202), “NONE”. The “effect on pain threshold (von Frey), data not shown” value in assay [2] (SC) is listed as “not effective”. Moreover, the “effect on pain threshold (von Frey), day 1 and day 5 dosing” value in assay [3] is reported as “not effective”.

As for `COc1ccc2c3c1O[C@@H]1C(F)CCC4[C@H](C2)N(CC2CC2)CC[C@]341` (stereo partly drawn) [XT-203], the “off-target hits in the screening” value in assay [1] is “activity at two targets”. The “effect on pain threshold (von Frey), day 1 dosing” value in assay [2] (XT-203 19 mg/kg SC 3x per day, FIG. 5A) is recorded as “minimal effect”. Further, the “effect on pain threshold (von Frey), day 5 testing” value in assay [2] (XT-203 19 mg/kg SC 3x per day, FIG. 5B) was “substantial effect”. Also, the “effect on pain threshold (von Frey), day 1 and day 5 dosing” value in assay [3] was “substantial effects”. Moreover, the “effect during day 5 testing compared with morphine 3 mg/kg” value in assay [3] (XT-203 28 or 30 mg/kg SC 3x per day) was “matching the response to morphine”.

The record behind these values is patent publication US11505556B2, “Halogenated derivatives of morphinans and uses thereof” (Xalud Therapeutics, Inc., priority 2017, dated 2022).
